Data reported in patent US20220389009A1, “SUBSTITUTED 1,6-NAPHTHYRIDINE INHIBITORS OF CDK5” (Goldfinch Bio, Inc., priority 2019, published 2022).

What was measured:
CDK5/p25 = CDK5/p25 (Homo sapiens, UniProt Q00535); assay: CDK5 mobility shift assay (enzymatic activity of CDK5/p25); format: biochemical; settings: for IC50: 0.154 nM CDK5/p25, FL peptide 29, 60 min at room temperature, read-out: CDK5 IC50; for CDK5/CDK2 specificity: fold more active against CDK5 than CDK2
Procedure, shortened: (§1)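 Carna CDK5/p25 (0.154 nM) or CDK2/CycA2 (1.25 nM) was preincubated 30 min with compound, ATP ([…] for CDK5; 37 μM for CDK2) and 10 mM MgCl2 in HEPES pH 7.5. The reaction was started with 1.5 μM FL peptide (29 for CDK5, 18 for CDK2) and run 60 min (CDK5) or 120 min (CDK2) at room temperature. Product was read by mobility shift, with IC50 from a 4-parameter fit.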

CDK2/CycA2 = CDK2/CycA2 (Homo sapiens, UniProt P24941); assay: CDK2 mobility shift assay (enzymatic activity of CDK2/CycA2); format: biochemical; settings: 1.25 nM CDK2/CycA2, 37 μM ATP, FL Peptide 18, 120 min at room temperature; read-out: CDK2 IC50
Procedure, shortened: as §1

Chain of CDK5/p25 (Q00535 whole entry): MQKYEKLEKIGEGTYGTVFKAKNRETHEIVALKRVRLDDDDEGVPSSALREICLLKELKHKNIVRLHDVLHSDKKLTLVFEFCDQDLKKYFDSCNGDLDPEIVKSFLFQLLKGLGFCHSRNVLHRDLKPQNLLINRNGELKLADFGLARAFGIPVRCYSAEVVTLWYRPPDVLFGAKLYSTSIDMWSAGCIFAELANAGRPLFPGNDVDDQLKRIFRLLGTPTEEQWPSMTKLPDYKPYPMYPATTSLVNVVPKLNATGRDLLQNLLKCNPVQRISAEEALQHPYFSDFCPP
Chain of CDK5/p25 (Q15078 99-307 partner limits assumed): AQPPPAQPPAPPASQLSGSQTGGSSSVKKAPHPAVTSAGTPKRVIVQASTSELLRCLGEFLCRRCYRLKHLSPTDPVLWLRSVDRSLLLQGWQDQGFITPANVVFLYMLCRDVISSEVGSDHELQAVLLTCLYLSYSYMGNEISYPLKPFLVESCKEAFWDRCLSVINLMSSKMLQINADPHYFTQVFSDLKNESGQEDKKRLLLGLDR

SMILES	IC50 (CDK5/p25) [nM]	IC50 (CDK2/CycA2) [nM]	CDK5/CDK2 specificity (CDK5/p25)
CCC(O)(c1ccc2cnc(Nc3ccc(-n4cccn4)cc3F)cc2n1)C1CCN(C)CC1 (stereo not drawn) [Compound 389]	> 1000	> 1000	++ (greater than 10-fold and less than or equal to 100-fold more active against CDK5 than CDK2)
COc1ccc(-c2ccc(Nc3cc4nc(C(C)C5CCN(C)CC5)ccc4cn3)c(F)c2)cc1 (stereo not drawn) [Compound 322]	< 10	100 to 1000	+++ (greater than 100-fold more active against CDK5 than CDK2)
O=C(O)[C@@H]1CNCC[C@@H]1Nc1ccc2cnc(Nc3ccc(-n4ccc(CO)n4)cc3F)cc2n1 (relative stereo) [Compound 131, cis-4-[[7-([2-fluoro-4-[3-(hydroxymethyl)pyrazol-1-yl]phenyl]amino)-1,6-naphthyridin-2-yl]amino]piperidine-3-carboxylic acid]	100 to 1000	> 1000	++ (greater than 10-fold and less than or equal to 100-fold more active against CDK5 than CDK2)
CC(c1ccc2cnc(Nc3ccc(-c4cccc(C(N)=O)c4)cc3F)cc2n1)C1CCN(C)CC1 (stereo not drawn) [Compound 410, 3′-fluoro-4′-([2-[1-(1-methylpiperidin-4-yl)ethyl]-1,6-naphthyridin-7-yl]amino)-[1,1′-biphenyl]-3-carboxamide]	< 10	100 to 1000	+++ (greater than 100-fold more active against CDK5 than CDK2)
CN1CCC(=Cc2ccc3cnc(Nc4ccc(-n5ccc(CO)n5)cc4F)cc3n2)CC1 [Compound 150, [1-[3-fluoro-4-([2-[(1-methylpiperidin-4-ylidene)methyl]-1,6-naphthyridin-7-yl]amino)phenyl]pyrazol-3-yl]methanol]	10 to 100	> 1000	++ (greater than 10-fold and less than or equal to 100-fold more active against CDK5 than CDK2)
OCCN1CCC(C(O)c2ccc3cnc(Nc4ccc(-n5ccc(CO)n5)cc4F)cc3n2)CC1 (single isomer, unassigned) [Compound 252, 2-(4-[[7-([2-fluoro-4-[3-(hydroxymethyl)pyrazol-1-yl]phenyl]amino)-1,6-naphthyridin-2-yl](hydroxy)methyl]piperidin-1-yl)ethanol]	< 10	100 to 1000	+++ (greater than 100-fold more active against CDK5 than CDK2)
OCc1ccn(-c2ccc(Nc3cc4nc(C5(C6CCNCC6)CC5)ccc4cn3)c(F)c2)n1 [Compound 316, [1-[3-fluoro-4-([2-[1-(piperidin-4-yl)cyclopropyl]-1,6-naphthyridin-7-yl]amino)phenyl]pyrazol-3-yl]methanol]	10 to 100	> 1000	++ (greater than 10-fold and less than or equal to 100-fold more active against CDK5 than CDK2)
COC(=O)c1ccn(-c2ccc(Nc3cc4nc(C(O)C5CCN(C)CC5)ccc4cn3)c(F)c2)n1 (stereo not drawn) [Compound 344]	100 to 1000	> 1000	++ (greater than 10-fold and less than or equal to 100-fold more active against CDK5 than CDK2)
OCc1ccn(-c2ccc(Nc3cc4nc(NC5CCNCC5)ccc4cn3)c(F)c2)n1 [Compound 102, [1-(3-fluoro-4-[[2-(piperidin-4-ylamino)-1,6-naphthyridin-7-yl]amino]phenyl)pyrazol-3-yl]methanol]	< 10	100 to 1000	++ (greater than 10-fold and less than or equal to 100-fold more active against CDK5 than CDK2)
OCc1ccn(-c2ccc(Nc3cc4nc(SC5CCNCC5)ccc4cn3)c(F)c2)n1 [Compound 108, [1-(3-fluoro-4-[[2-(piperidin-4-ylsulfanyl)-1,6-naphthyridin-7-yl]amino]phenyl)pyrazol-3-yl]methanol]	< 10	10 to 100	++ (greater than 10-fold and less than or equal to 100-fold more active against CDK5 than CDK2)
COC(=O)CN(c1ccc2cnc(Nc3ccc(-n4ccc(CO)n4)cc3F)cc2n1)C1CCNCC1 [Compound 112, Methyl 2-[[7-([2-fluoro-4-[3-(hydroxymethyl)pyrazol-1-yl]phenyl]amino)-1,6-naphthyridin-2-yl](piperidin-4-yl)amino]acetate]	100 to 1000	> 1000	++ (greater than 10-fold and less than or equal to 100-fold more active against CDK5 than CDK2)
OC(c1ccc2cnc(Nc3ccc(-n4cccn4)cc3F)cc2n1)C1(O)CCNCC1 (stereo not drawn) [Compound 209, 4-[(7-[[2-fluoro-4-(pyrazol-1-yl)phenyl]amino]-1,6-naphthyridin-2-yl) (hydroxy)methyl]piperidin-4-ol]	100 to 1000	> 1000	++ (greater than 10-fold and less than or equal to 100-fold more active against CDK5 than CDK2)

More lines, main results first:

IC50 (CDK5/p25) [nM]	IC50 (CDK2/CycA2) [nM]	SMILES	CDK5/CDK2 specificity (CDK5/p25)
10 to 100	100 to 1000	CN1CCC(S(=O)(=O)c2ccc3cnc(Nc4ccon4)cc3n2)CC1 [Compound 269]	+ (10-fold or less more active against CDK5 than CDK2)
< 10	10 to 100	CN1CCC(S(=O)(=O)c2ccc3cnc(Nc4ccc5c(c4)COC5)cc3n2)CC1 [Compound 282]	++ (greater than 10-fold and less than or equal to 100-fold more active against CDK5 than CDK2)
< 10	10 to 100	CN1CCC([C@@](C)(O)c2ccc3cnc(Nc4ccccc4)cc3n2)CC1 [Compound 345, (1R)-1-(1-methylpiperidin-4-yl)-1-[7-(phenylamino)-1,6-naphthyridin-2-yl]ethanol]	++ (greater than 10-fold and less than or equal to 100-fold more active against CDK5 than CDK2)
< 10	10 to 100	CN1CCC(C(C)(O)c2ccc3cnc(Nc4ccc(-c5noc(=O)[nH]5)cc4F)cc3n2)CC1 (stereo not drawn) [Compound 355]	++ (greater than 10-fold and less than or equal to 100-fold more active against CDK5 than CDK2)
< 10	> 1000	COc1cc(-c2ccc(Nc3cc4nc(S(=O)(=O)C5CCN(CC6COC6)CC5)ccc4cn3)c(F)c2)ccn1 [Compound 328]	+++ (greater than 100-fold more active against CDK5 than CDK2)
< 10	10 to 100	Cc1cccc(Nc2cc3nc(S(=O)(=O)C4CCN(C)CC4)ccc3cn2)c1 [Compound 382]	+++ (greater than 100-fold more active against CDK5 than CDK2)
100 to 1000	> 1000	COC(c1ccc2cnc(Nc3ccc(-n4cccn4)cc3F)cc2n1)C1CCN(C)CC1 (single isomer, unassigned) [Compound 387, N-[2-fluoro-4-(pyrazol-1-yl)phenyl]-2-[methoxy(1-methylpiperidin-4-yl)methyl]-1,6-naphthyridin-7-amine]	++ (greater than 10-fold and less than or equal to 100-fold more active against CDK5 than CDK2)
< 10	10 to 100	CN1CCC([C@@](C)(O)c2ccc3cnc(Nc4ccc(-c5cc[nH]n5)cc4F)cc3n2)CC1 [Compound 414, (1R)-1-(7-[[2-fluoro-4-(1H-pyrazol-3-yl)phenyl]amino]-1,6-naphthyridin-2-yl)-1-(1-methylpiperidin-4-yl)ethanol]	++ (greater than 10-fold and less than or equal to 100-fold more active against CDK5 than CDK2)
10 to 100	100 to 1000	CCC(O)(c1ccc2cnc(Nc3ccc(-n4cccn4)cc3F)cc2n1)C1CCN(C)CC1 (stereo not drawn) [Compound 392]	++ (greater than 10-fold and less than or equal to 100-fold more active against CDK5 than CDK2)
100 to 1000	100 to 1000	CN1CCC(C(O)c2ccc3cnc(Nc4ccc(-n5cccn5)cc4F)cc3n2)CC1 (single isomer, unassigned) [Compound 176, (7-[[2-fluoro-4-(pyrazol-1-yl)phenyl]amino]-1,6-naphthyridin-2-yl) (1-methylpiperidin-4-yl)methanol]	+ (10-fold or less more active against CDK5 than CDK2)
< 10	100 to 1000	CN1CCC(S(=O)(=O)c2ccc3cnc(Nc4ccc5oc(=O)ccc5c4)cc3n2)CC1 [Compound 272]	++ (greater than 10-fold and less than or equal to 100-fold more active against CDK5 than CDK2)
< 10	10 to 100	CN1CCC(C(C)(O)c2ccc3cnc(Nc4ccc(-c5cccnc5)cc4F)cc3n2)CC1 (stereo not drawn) [Compound 329]	++ (greater than 10-fold and less than or equal to 100-fold more active against CDK5 than CDK2)
< 10	10 to 100	CN1CCC(S(=O)(=O)c2ccc3cnc(Nc4ccc(C(C)(C)C)cc4)cc3n2)CC1 [Compound 295]	++ (greater than 10-fold and less than or equal to 100-fold more active against CDK5 than CDK2)
< 10	100 to 1000	O=S(=O)(c1ccc2cnc(Nc3ccc(-n4ccc(CO)n4)cc3F)cc2n1)C1CCN(CC(O)CO)CC1 (stereo not drawn) [Compound 249]	++ (greater than 10-fold and less than or equal to 100-fold more active against CDK5 than CDK2)
10 to 100	10 to 100	CN1CCC(S(=O)(=O)c2ccc3cnc(Nc4ccc(S(=O)(=O)N(C)C)cn4)cc3n2)CC1 [Compound 257]	+ (10-fold or less more active against CDK5 than CDK2)
< 10	10 to 100	CN1CCC(S(=O)(=O)c2ccc3cnc(Nc4ccc(N(C)C)cc4)cc3n2)CC1 [Compound 306]	+++ (greater than 100-fold more active against CDK5 than CDK2)
